Laboratory results published in US12673039B2, “Methods of inducing autophagy using coumarin derivatives and related compounds” (Buck Institute for Research on Aging, priority 2019, dated 2026).

What follows are molecules tested against T1, DAF-12 (Caenorhabditis elegans, UniProt G5EFF5) (assay: Mammalian one-hybrid DAF-12 activity assay (HEK293T)). Details: compound alone.
T1 construct: expressed in transfected cells; host or cells: HEK293T
T1 sequence (G5EFF5 516-753 limits assumed): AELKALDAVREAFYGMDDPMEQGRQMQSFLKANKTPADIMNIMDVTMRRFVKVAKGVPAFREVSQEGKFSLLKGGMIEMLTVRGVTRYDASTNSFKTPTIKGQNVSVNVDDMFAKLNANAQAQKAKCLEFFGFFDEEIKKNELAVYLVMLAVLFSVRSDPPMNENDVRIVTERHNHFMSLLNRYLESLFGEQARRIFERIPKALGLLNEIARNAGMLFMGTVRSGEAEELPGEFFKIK
Format: cell-based, human
Description: FIG. 10 illustrates that coumarin 106 (“C1”, “AIC106”) inhibits induction of the worm FXR homologue DAF-12. The ability of C1 (10 μM) to inhibit activation of the FXR worm homologue DAF-12 by its ligand dafachronic acid (Df acid); values are fold activity induction versus untreated controls; ****p<0.01 versus GW; **p<0.05 versus GW.
FIG. 22, panels A-H: AIC106-induced HLH-30 expression is mediated by the nuclear hormone receptor DAF-12. Panel A) The upstream promoter region (2 kB) of hlh-30 was analyzed by JASPAR CORE database to determine DAF-12 binding sites (1: SEQ ID NO:1, 2: 1: SEQ ID NO:2, 3: SEQ ID NO:3, 4: SEQ ID NO:4, 5: SEQ ID NO:5, 6: SEQ ID NO:6, 7: SEQ ID NO:7, 8: SEQ ID NO:8, 9: SEQ ID NO:9, 10: SEQ ID NO:10, 11: SEQ ID NO:11, 12: SEQ ID NO:12). Panel B) Relative fold change in mRNA of hlh-30 compared to DMSO-control was quantified using qRT-PCR in young adult wild-type N2 and daf-12(rh61rh411) worms post-24 hours treatment with AIC106. [N=3 independent experiments (mean±SD). **p<0.01, by one-way ANOVA with Sidak's multiple comparisons test]. Panel C) Effects of AIC106 on DAF-12 activity was determined in a mammalian one-hybrid assay by quantifying changes in the luciferase activity of DAF-12 ligand (dafachronic acid, DA) induced treatment. [N=3 independent experiments (mean±SD). *p<0.05 **p<0.01 and ***p<0.001, by one-way ANOVA with Tukey's multiple comparisons test]. Panel D) Schematic diagram showing that addition of AIC106 or inhibition of DAF-12 ligand synthesis, which leads to un-liganded DAF-12 may result in enhanced HLH-30 expression. Panel E) Dafadine-A (DFA), a specific inhibitor of key enzyme required for synthesis of DAF-12 ligand induces HLH-30 expression. Immunoblot for GFP was performed on protein lysate of HLH-30; GFP (MAH235) young adult worms treated with DFA or DMSO-control for 24 hours. Panel F) Protection against mitochondrial toxin (FCCP) was determined by quantifying survival of young adult worms treated 24 hours with DFA or DMSO-control. [N=3 independent experiments (mean±SD). **p<0.01, by two-way ANOVA with Tukey's multiple comparisons test]. Panel G) Motor function in day-7 NL5901 worms were quantified by scoring number of thrashes for an individual worm over the period of 30 seconds (dots) in DFA and DMSO-control treatment. [N=3 independent experiments (mean±SD). **p<0.01, by unpaired t-test] […] [N=3 independent experiments (mean±SD). *p<0.05, by one-way ANOVA with Tukey's multiple comparisons test].
FIG. 29, panels A-C: AIC106 modulates DAF-12 activity. […] Luciferase activity was measured to quantify DAF-12 activity. Panel C) Dose dependent increase in DAF-12 activity after treatment with known DAF-12 ligand, dafachronic acid (DA) was determined by quantifying luciferase activity. […]
For dafachronic acid [reference compound], the “DAF-12 activity (luciferase)” value was “increase DAF-12 activity in a dose dependent manner”.

What follows are molecules tested on TFEB (assay: TFEB activation screen, % activation/control at 24 and 48 hrs (Table 1)). Details: Homo sapiens, 24 h.
Format: cell-based, human
Description: FIG. 25, panels A-B::AIC106 identified as a lead compound in a TFEB-transcription based screen. Panel A) Rat Neuronal N27 cells were transfected with a vector construct driving expression of secreted-Gaussia luciferase (Sec-Gaussia) in control of 2 kb human TFEB promoter. Next day, cells were seeded into 96-well cell culture plate and exposed to compounds (30 μM) from natural product library (NPL-640) or DMSO-control. After 24 and 48 hours of compound treatment supernatant from the cells was collected and TFEB promoter activity determined by quantifying luciferase activity. Panel B) Effects of AIC106 treatment on HLH-30 expression after 24 hours treatment were determined by immunoblot against GFP in young adult stage of GFP-tagged HLH-30 strain (MAH235) following total protein extraction.
It was discovered that small structural alterations in the C1 compound can have significant effects on the degree of TFEB activation (see, e.g., FIG. 17) the screening systems described herein identified a number of structures related to C1 that similarly induce TFEB.
In vitro drug screening studies. […] We utilized for these studies a 3000 compound natural product derivative library (Timtec, Newark, DE) in […] transfected with a sensitive TFEB promotor-Gaussian luciferase construct. […] C1 is a coumarin-related compound, part of a family of natural benzopyrones found in many edible plants.
To identify novel transcriptional inducers of TFEB, we transfected rat neuronal N27 cells with a vector driving expression of secreted-luciferase under control of the human TFEB promoter. […] AIC106 belongs to a family of coumarin compounds containing an active benzopyrone ring.
With O=c1oc2ccc(Br)cc2c(-c2ccccc2)c1-c1ccccc1Cl [E3] the activity at 30 µM was 347%. Cc1ccc2oc(=O)c(-c3ccc(Cl)cc3Cl)c(-c3ccc(Cl)cc3)c2c1 [B6] showed an activity at 30 µM of 91.2%. COc1ccc(-c2c(-c3ccccc3)c3ccc(O)cc3oc2=O)c(Cl)c1 [F2] showed an activity at 30 µM of 341%. Molecule O=c1oc2cc(O)ccc2c(-c2ccccc2)c1-c1ccccc1 [C2] has an activity at 30 µM of 311%. Molecule O=c1oc2cc(O)cc(-c3ccccc3)c2cc1-c1ccccc1Cl [C3 ST081388] has an activity at 30 µM of 317%. Molecule Cc1cc2oc(=O)c(-c3ccc(Cl)cc3)c(-c3ccc(Cl)cc3)c2cc1Cl [D5] has an activity at 30 µM of 103%. In the case of O=C(O)c1ccccc1-c1c2ccc(=O)cc-2oc2cc(O)ccc12 [A2], the activity at 30 µM is reported as 293%. Molecule CC(C)(C)OC(=O)C1Cc2cc3c4c(c2OC1=O)CCCN4CCC3 (centres unmarked) [C3 ST083673] has an activity at 30 µM of 328%. For COc1ccc(-c2c(-c3ccccc3)c3ccc(O)cc3oc2=O)c(Cl)c1OC [D3], the activity at 30 µM was 381%. For O=c1oc2ccccc2c(-c2ccccc2)c1-c1ccc(Cl)cc1Cl [B3], the activity at 30 µM was 338%. For O=c1oc2ccc(Cl)cc2c(-c2ccccc2)c1-c1ccc(Cl)cc1Cl [B5], the activity at 30 µM was 83.2%. Molecule O=c1oc2ccc(Br)cc2c(-c2ccc(Cl)cc2)c1-c1ccc(Cl)cc1 [G3] has an activity at 30 µM of 365%. O=c1oc2ccc(Br)cc2c(-c2ccccc2)c1-c1ccc(Br)cc1 [E5] showed an activity at 30 µM of 92.5%. O=c1oc2ccccc2c(-c2ccccc2)c1-c1cccc(Br)c1 [G5] gave an activity at 30 µM of 65.1%. Work on O=c1oc2c(Cl)cc(Cl)cc2c(-c2ccccc2)c1-c1ccccc1 [C5] yielded an activity at 30 µM of 87.2%. With O=c1oc2cc(O)ccc2c(Cc2ccc(Cl)cc2)c1-c1ccccc1 [A3] the activity at 30 µM was 324%. O=c1oc2ccc(Cl)cc2c(-c2ccccc2)c1-c1ccccc1Cl [D4] gave an activity at 30 µM of 369%. O=c1oc2c(Cl)cc(Cl)cc2c(-c2ccccc2)c1-c1ccc(Cl)cc1Cl [F5] showed an activity at 30 µM of 105%. O=c1oc2cc(O)ccc2c(-c2ccccc2)c1-c1cccc(Cl)c1 [H2] showed an activity at 30 µM of 334%. With O=c1oc2ccccc2c(-c2ccccc2)c1-c1ccccc1 [H4] the activity at 30 µM was 346%. O=c1oc2c(Cl)cc(Cl)cc2c(-c2ccc(Cl)cc2)c1-c1ccccc1 [C6] showed an activity at 30 µM of 104%. Molecule Cc1cc2oc(=O)c(-c3ccc(Cl)cc3Cl)c(-c3ccccc3)c2cc1Cl [A4] has an activity at 30 µM of 361%. In the case of Cc1ccc2c(-c3ccccc3)c(-c3ccc(Br)cc3)c(=O)oc2c1 [B4], the activity at 30 µM is reported as 390%. Work on O=CC1Cc2cc3c4c(c2OC1=O)CCCN4CCC3 (centres unmarked) [E6] yielded an activity at 30 µM of 367%. With O=c1oc2c(Br)cc(Cl)cc2c(-c2ccccc2)c1-c1ccc(Br)cc1 [B2] the activity at 30 µM was 331%. With Cc1cc2oc(=O)c(-c3ccccc3Cl)c(-c3ccccc3)c2cc1Cl [A6] the activity at 30 µM was 76.6%. O=c1oc2ccc(Cl)cc2c(-c2ccc(Cl)cc2)c1-c1ccc(Cl)cc1 [H3] was tested, and the activity at 30 µM was 361%. Cc1ccc2oc(=O)c(-c3ccccc3)c(-c3ccccc3)c2c1 [H5] showed an activity at 30 µM of 70.1%. With O=c1oc2ccc(Br)cc2c(-c2ccccc2Cl)c1-c1cccc(Cl)c1 [F3] the activity at 30 µM was 302%. In the case of Cc1cc2oc(=O)c(-c3ccccc3)c(-c3ccccc3)c2cc1Cl [A5], the activity at 30 µM is reported as 62.3%. In the case of C=CCOc1ccc2c(-c3ccccc3)c(-c3cccc(Br)c3)c(=O)oc2c1 [E4], the activity at 30 µM is reported as 400%. For O=c1oc2ccc(Br)cc2c(-c2ccccc2)c1-c1cccc(Cl)c1 [F4], the activity at 30 µM was 365%. In the case of O=C(O)C1Cc2cc3c4c(c2CC1=O)CCCN4CCC3 (centres unmarked) [D2], the activity at 30 µM is reported as 336%. Work on Cc1cc2oc(=O)c(-c3ccc(Cl)cc3Cl)c(-c3ccc(Cl)cc3)c2cc1Cl [D6] yielded an activity at 30 µM of 360%. For Cc1cc2oc(=O)c(-c3ccc(Br)cc3)c(-c3ccccc3)c2cc1Cl [G4], the activity at 30 µM was 390%. Work on O=c1oc2cc(O)ccc2c(Cc2ccccc2)c1-c1ccccc1 [G2] yielded an activity at 30 µM of 341%. In the case of O=c1oc2ccc(Br)cc2c(-c2ccc(Cl)cc2)c1-c1ccc(Cl)cc1Cl [C4], the activity at 30 µM is reported as 432%.
